Here are results for eleven compounds from patent US10172823B1, “Method for inhibiting cancer cell growth with a transplatin complex” (KING FAHD UNIVERSITY OF PETROLEUM AND MINERALS, priority 2017, dated 2019).

“Also recorded” adds a separate entry of the source.

For data set [1], the system named is MCF-7 (human breast cancer) cell line. Briefly: In vitro cytotoxic activity, MTT assay, MCF-7 cell line. Conditions: for cytotoxicity compared with cisplatin and carboplatin, MCF7: MCF7 cell line, comparison of IC50 values in words; for IC50: read-out: IC50 Values against MCF7, MTT assay, MCF7 cells, 24 h incubation with compound, three independent experiments, ± standard deviation. The procedure:
The trans-[Pt(NH3)2(thione)2].2NO3 complexes were evaluated for in vitro cytotoxic activity against A549 (human lung cancer), MCF-7 (human breast cancer) and HTC15 (human colon cancer) cell lines. The cells were seeded at 4×10^3 cells/well in 100 μL DMEM containing 10% FBS in 96-wells tissue culture plate and incubated for 72 h at 37° C., 5% CO2 in air and 90% relative humidity in CO2 incubator. […] The medium of wells was discarded and 100 μL DMEM containing MTT (3-(4,5-Dimethylthiazol-2-yl)-2,5-diphenyltetrazolium Bromide) (5 mg/mL) was added to the wells and incubated in CO2 incubator at 37° C. in dark for 4 h. After incubation, purple colored formazan (artificial chromogenic dye, product of the reduction of water insoluble tetrazolium salts e.g., MMT by dehydrogenases and reductases) in the cells is produced and appeared as dark crystals in the bottom of the wells. The resultant crystals were solublized by adding 100 μL of DMSO in each well. The solution was thoroughly mixed to dissolve the formazan crystals, producing a purple solution. The absorbance of the 96-wells plate was taken at 570 nm with Labsystems Multiskan EX-Enzyme-linked immunosorbent assay (EX-ELISA) reader against a reagent blank. The IC50 values were calculated from three independent experiments by generating an equation of logarithmic trend line of percentage cell viability against concentration of compounds in Microsoft excel.
(§1) The MTT assay was performed in three independent experiments, each in triplicate. The cancer cell lines used are A549 (human lung cancer), MCF-7 (human breast cancer) and HTC15 (human colon cancer) cell lines. Errors are standard deviations determined from at least three independent experiments.
On the technique in general: Formazan colour is commonly taken as a measure of viable cells.

Data set [2] relates to HCT15 (human colon cancer) cell line. Briefly: In vitro cytotoxic activity, MTT assay, HCT15 cell line. The data set is classed as cell-based. Conditions: for activity compared with cisplatin and carboplatin, HCT15: HCT15 cell line, comparison of IC50 values in words; for IC50: MTT assay, HCT15 cells, 24 h incubation with compound, three independent experiments, ± standard deviation, read-out: IC50 Values against HCT15. As to the method:
(§2) The trans-[Pt(NH3)2(thione)2].2NO3 complexes were evaluated for in vitro cytotoxic activity against A549 (human lung cancer), MCF-7 (human breast cancer) and HTC15 (human colon cancer) cell lines. The cells were seeded at 4×10^3 cells/well in 100 μL DMEM containing 10% FBS in 96-wells tissue culture plate and incubated for 72 h at 37° C., 5% CO2 in air and 90% relative humidity in CO2 incubator. After incubation, 100 μL of each sample solution (50, 25, 12.5 and 6.25 μM), prepared in DMEM, were added to cells and the cultures were incubated for 24 h. The medium of wells was discarded and 100 μL DMEM containing MTT (3-(4,5-Dimethylthiazol-2-yl)-2,5-diphenyltetrazolium Bromide) (5 mg/mL) was added to the wells and incubated in CO2 incubator at 37° C. in dark for 4 h. After incubation, purple colored formazan (artificial chromogenic dye, product of the reduction of water insoluble tetrazolium salts e.g., MMT by dehydrogenases and reductases) in the cells is produced and appeared as dark crystals in the bottom of the wells. The resultant crystals were solublized by adding 100 μL of DMSO in each well. The solution was thoroughly mixed to dissolve the formazan crystals, producing a purple solution. The absorbance of the 96-wells plate was taken at 570 nm with Labsystems Multiskan EX-Enzyme-linked immunosorbent assay (EX-ELISA) reader against a reagent blank. The IC50 values were calculated from three independent experiments by generating an equation of logarithmic trend line of percentage cell viability against concentration of compounds in Microsoft excel.
as §1

For data set [3], the system named is A549 (human lung cancer) cell line. Briefly: In vitro cytotoxic activity, MTT assay, A549 cell line. Conditions: for in vitro cytotoxicity compared with cisplatin and carboplatin, A549: A549 cell line, comparison of IC50 values in words; for IC50: read-out: IC50 Values against A549, MTT assay, A549 cells, 24 h incubation with compound, three independent experiments, ± standard deviation. The procedure:
as §2, §1

What is called IC50 is the concentration at which inhibition is half-maximal.

For `CCCN1CCNC1=S.CCCN1CCNC1=S.N.N.O=[N+]([O-])[O-].O=[N+]([O-])[O-].[Pt+2]` [Complex 5, trans-[Pt(NH3)2(PrImt)2]. 2NO3], in data set [1], the “cytotoxicity compared with cisplatin and carboplatin, MCF7” value is “between cisplatin and carboplatin”; the half-maximal inhibitory concentration (IC50) turned out to be 45 ± 1 µM. For the same compound, in data set [2], the “activity compared with cisplatin and carboplatin, HCT15” value is “comparable to cisplatin”; the IC50 amounted to 36 µM. Moreover, in data set [3], the “in vitro cytotoxicity compared with cisplatin and carboplatin, A549” value is “almost two-fold better than that of carboplatin; also recorded: better cytotoxicity against A549 cancer cell line than cisplatin”; the 50% inhibitory concentration (IC50) was 41 µM.

For the compound `N.N.[Cl][Pt][Cl]` [Cisplatin, cisplatin, reference compound], the values for the IC50 in data set [1], in data set [2] and in data set [3] were 23 ± 3 µM, 32 ± 2 µM and 42 ± 2 µM, respectively.

`N.N.O=[N+]([O-])[O-].O=[N+]([O-])[O-].S=C1NCCN1.S=C1NCCN1.[Pt+2]` [Complex 1, trans-[Pt(NH3)2(Imt)2]. 2NO3]: the IC50 in data set [1] worked out at 80 ± 1 µM. In addition, in data set [2], the “activity compared with cisplatin and carboplatin, HCT15” value is “almost the same cytotoxicity as carboplatin”; the IC50 was 50 ± 1 µM. Further, in data set [3], the “in vitro cytotoxicity compared with cisplatin and carboplatin, A549” value is given as “slightly lower than cisplatin but still higher than carboplatin”; the IC50 was determined as 52 ± 2 µM.

With `CC(C)N1CCN(C(C)C)C1=S.CC(C)N1CCN(C(C)C)C1=S.N.N.O=[N+]([O-])[O-].O=[N+]([O-])[O-].[Pt+2]` [Complex 7, trans-[Pt(NH3)2(Pr2Imt)2].2 NO3], the IC50 in data set [1] was determined as 87 ± 2 µM. In data set [2], the “activity compared with cisplatin and carboplatin, HCT15” value was “almost the same cytotoxicity as carboplatin”; the concentration for half-maximal inhibition (IC50) was 53 ± 1 µM. In data set [3], the “in vitro cytotoxicity compared with cisplatin and carboplatin, A549” value is on record as “the same cytotoxicity as carboplatin”; the IC50 came to 69 ± 1 µM.

`CN1CCNC1=S.CN1CCNC1=S.N.N.O=[N+]([O-])[O-].O=[N+]([O-])[O-].[Pt+2]` [Complex 2, trans-[Pt(NH3)2(MeImt)2]. 2NO3]: the IC50 in data set [1] worked out at 70 ± 2 µM. Moreover, in data set [2], the “activity compared with cisplatin and carboplatin, HCT15” value is listed as “comparable to cisplatin”; the IC50 is 40 µM. For the same compound, in data set [3], the “in vitro cytotoxicity compared with cisplatin and carboplatin, A549” value is recorded as “almost two-fold better than that of carboplatin; also recorded: better cytotoxicity against A549 cancer cell line than cisplatin”; the IC50 is 40 µM.

`N.N.O=C([O-])C1(C(=O)[O-])CCC1.[Pt+2]` [Carboplatin, carboplatin, reference compound]: the 50% inhibitory concentration (IC50) in data set [1] was determined as 63 ± 2 µM; in data set [2], 53 ± 2 µM; in data set [3], 70 ± 2 µM.

Consider `N.N.O=[N+]([O-])[O-].O=[N+]([O-])[O-].S=C1NCCCCN1.S=C1NCCCCN1.[Pt+2]` [Complex 9, trans-[Pt(NH3)2(Diap)2]. 2NO3], for which the IC50 in data set [1] came out at 69 ± 1 µM. Also, in data set [2], the “activity compared with cisplatin and carboplatin, HCT15” value is “comparable to cisplatin”; the concentration for half-maximal inhibition (IC50) came to 41 µM. Also, in data set [3], the “in vitro cytotoxicity compared with cisplatin and carboplatin, A549” value is “slightly lower than cisplatin but still higher than carboplatin”; the IC50 was determined as 49 ± 1 µM.

Regarding `CN1CCN(C)C1=S.CN1CCN(C)C1=S.N.N.O=[N+]([O-])[O-].O=[N+]([O-])[O-].[Pt+2]` [Complex 3, trans-[Pt(NH3)2(Me2Imt)2]. 2NO3], the IC50 in data set [1] was determined as 92 ± 2 µM. In addition, in data set [2], the “activity compared with cisplatin and carboplatin, HCT15” value is given as “less potent even than carboplatin”; the IC50 amounted to 69 ± 2 µM. In data set [3], the “in vitro cytotoxicity compared with cisplatin and carboplatin, A549” value is “the same cytotoxicity as carboplatin”; the IC50 stood at 70 ± 1 µM.

As to `CCN1CCN(CC)C1=S.CCN1CCN(CC)C1=S.N.N.O=[N+]([O-])[O-].O=[N+]([O-])[O-].[Pt+2]` [Complex 4, trans-[Pt(NH3)2(Et2Imt)2]. 2NO3], the IC50 in data set [1] is 89 ± 1 µM; in data set [2], 63 ± 1 µM; in data set [3] it was 75 ± 1 µM. In data set [2], the “activity compared with cisplatin and carboplatin, HCT15” value is “less potent even than carboplatin”.

As for `CC(C)N1CCNC1=S.CC(C)N1CCNC1=S.N.N.O=[N+]([O-])[O-].O=[N+]([O-])[O-].[Pt+2]` [Complex 6, trans-[Pt(NH3)2(iPrImt)2]. 2NO3], the IC50 in data set [1] was found to be 86 ± 2 µM. In addition, in data set [2], the “activity compared with cisplatin and carboplatin, HCT15” value is on record as “less potent even than carboplatin”; the 50% inhibitory concentration (IC50) amounted to 79 ± 1 µM. In data set [3], the “in vitro cytotoxicity compared with cisplatin and carboplatin, A549” value was “slightly lower than cisplatin but still higher than carboplatin”; the half-inhibitory concentration (IC50) stood at 66 ± 1 µM.

Take `CCN1CCCNC1=S.CCN1CCCNC1=S.N.N.O=[N+]([O-])[O-].O=[N+]([O-])[O-].[Pt+2]` [Complex 8, trans-[Pt(NH3)2(EtDiaz)2]. 2NO3]: in data set [1], the “cytotoxicity compared with cisplatin and carboplatin, MCF7” value was “between cisplatin and carboplatin”; the half-maximal inhibitory concentration (IC50) is 60 ± 2 µM. In data set [2], the “activity compared with cisplatin and carboplatin, HCT15” value was “comparable to cisplatin”; the IC50 is 43 µM. Besides, in data set [3], the “in vitro cytotoxicity compared with cisplatin and carboplatin, A549” value is “slightly lower than cisplatin but still higher than carboplatin”; the IC50 is 48 ± 1 µM.
